Source: ChEMBL document CHEMBL5247639, “Fused-ring α-pyrones from intramolecular C-H activation and their lipids-lowering activity associated with LXR-IDOL-LDLR axis regulation” (2022)
Calls of active or inactive are those of the source. No cut-off for these calls is given here.

What was measured:
[1] = tested on: HepG2; assay: Induction of LDL uptake in human HepG2 cells at 5 uM incubated for 24 hrs by microplate reader analysis; assay type: functional, cell-based
[2] = Upregulation of LDLR protein level in human HepG2 cells at 5 uM incubated for 24 hrs by Western blot analysis relative to control; assay type: functional
[3] = Downregulation of IDOL protein level in human HepG2 cells at 5 uM incubated for 24 hrs by Western blot analysis relative to control; assay type: functional
[4] = tested on: HepG2; assay: Downregulation of IDOL mRNA level in human HepG2 cells at 5 uM incubated for 24 hrs by Q-PCR analysis; assay type: functional, cell-based
[5] = tested on: HepG2; assay: Downregulation of LXRalpha protein level in nucleus of human HepG2 at 5 uM incubated for 24 hrs by Western blot analysis; assay type: functional, cell-based
[6] = tested on: HepG2; assay: Inhibition of LXR activity in human HepG2 cells assessed as downregulation of ABCA1 level at 5 uM incubated for 24 hrs by Q-PCR analysis; assay type: cell-based
[7] = tested on: HepG2; assay: Inhibition of LXR activity in human HepG2 cells assessed as downregulation of SREBP-1c level at 5 uM incubated for 24 hrs by Q-PCR analysis; assay type: cell-based
[8] = tested on: HepG2; assay: Upregulation of LDLR protein level in human HepG2 cells at 5 uM incubated for 24 hrs by Western blot analysis; assay type: functional, cell-based
[9] = tested on: Syrian golden hamster; assay: Hypolipidemic activity in high fat diet induced Syrian golden hamster assessed as decrease in low-density lipoprotein cholesterol level at 30 mg/kg,ip administered once daily for 21 days by automatic biochemical analyzer; assay type: functional, organism-based; conditions: Mesocricetus auratus, time 21.0 day
[10] = tested on: Syrian golden hamster; assay: Hypolipidemic activity in high fat diet induced Syrian golden hamster assessed as decrease in total cholesterol level at 30 mg/kg,ip administered once daily for 21 days by automatic biochemical analyzer; assay type: functional, organism-based; conditions: Mesocricetus auratus, time 21.0 day
[11] = tested on: Syrian golden hamster; assay: Hypolipidemic activity in high fat diet induced Syrian golden hamster assessed as decrease in triglyceride level at 30 mg/kg,ip administered once daily for 21 days by automatic biochemical analyzer; assay type: functional, organism-based; conditions: Mesocricetus auratus, time 21.0 day

**Q.** For `O=c1oc(-c2cccs2)c2c3c1c1ccccc1n3CCC2`, which Activity [1] is on record?
**A.** Active

**Q.** For `O=c1cc2c(c(-c3cc4ccccc4s3)o1)CCCC2`, which Activity [1] is on record?
**A.** Active

**Q.** With `O=c1cc2c(c(-c3cccs3)o1)CCCC2` as the molecule, how does the Activity [1] read?
**A.** Active

**Q.** And the Activity [2]?
**A.** 238%

**Q.** And the Activity [3]?
**A.** 42%

**Q.** What about the Activity [4] of the same molecule?
**A.** Active

**Q.** What about the Activity [5] of the same molecule?
**A.** Active

**Q.** What about the inhibition [6] of the same molecule?
**A.** Active

**Q.** What about the inhibition [7] of the same molecule?
**A.** Active

**Q.** Which Activity [1] does the source give for `O=c1cc2c(c(-c3ccc(-c4cccs4)s3)o1)CCCC2` here?
**A.** Active

**Q.** Which Activity [1] does the source give for `O=c1cc2c(c(-c3ccc(-c4ccccc4)s3)o1)CCCC2` here?
**A.** Active

**Q.** For `O=c1cc2c(c(-c3cc4ccccc4o3)o1)CCCC2`, which Activity [1] is on record?
**A.** Active

**Q.** For `COc1ccccc1-c1oc(=O)cc2c1CCCC2`, which Activity [1] is on record?
**A.** Active

**Q.** What about the Activity [8] of the same molecule?
**A.** inactive

**Q.** For `O=c1oc(-c2ccccc2)c2c3c1c1ccccc1n3CCC2`, which Activity [1] is on record?
**A.** Active

**Q.** What about the Activity [2] of the same molecule?
**A.** 160%

**Q.** What about the Activity [3] of the same molecule?
**A.** 28%

**Q.** And the Activity [4]?
**A.** Active

**Q.** And the Activity [5]?
**A.** Active

**Q.** And the inhibition [6]?
**A.** Active

**Q.** What about the inhibition [7] of the same molecule?
**A.** Active

**Q.** What about the Activity [9] of the same molecule?
**A.** Active

**Q.** What about the Activity [10] of the same molecule?
**A.** Active

**Q.** And the Activity [11]?
**A.** Active
